Data set [1] relates to K562. The data set is described as follows: cells. As for the experimental part:
(§1) 10^4 cells per well were seeded in 96-well culture plates with or without one of the test compounds. Various concentrations for the test compound were examined. […] The drug concentration resulting in total growth inhibition (TGI) is determined when Ti=Tz.
(§2) Cells were seeded in a 96-well flat-bottomed plate (2,500 to 3,000 cells per well). […] After being incubated at 37° C. for 2 h, the supernatant was removed and 200 μl/well of DMSO were added to dissolve the remaining MTT dye. The absorbance at 570 nm in each well was determined using a plate reader.

Data set [2] deals with U937. Nature of the data set: cells. As for the experimental part: as §1, §2
The subject of data set [3] is HL60. Nature of the data set: cells. The procedure: as §1, §2
Data set [4] relates to NB4. Nature of the data set: cells. The procedure: as §1, §2
The subject of data set [5] is Kasumi-1. The data set is described as follows: MTT cell viability assay, Kasumi-1. The format is cell-based.
The test system of data set [6] is PC-3 cells. Nature of the data set: Western blot analysis. Type of data set: cell-based. As to conditions: PC-3 cells, 1, 2.5, or 5 μM, 48 hours. As for the experimental part: PC-3 cells treated with a test compound at 1, 2.5, or 5 μM in RPMI 1640 supplemented with 10% FBS for 48 hours. The cells were collected and sonicated. Protein concentrations in the resultant lysates were determined by a Bradford protein assay kit (Bio-Rad, Hercules, Calif.). The protein lysate, containing the same amount of proteins, were subjected to 10% SDS-polyacrylarnide gel (10%) electrophoresis. The proteins on the gel were then transferred onto an Immobilon-nitrocellulose membrane (Millipore, Bellerica, Mass.) in a semi-dry transfer cell. The transblotted membrane was washed twice with tris-buffered saline containing 0.1% Tween 20 (TBST). After being blocked with TBST containing 5% nonfat milk for 40 min, the membrane was incubated with a primary antibody specific to Acetyl-H3 (antibody obtained from Upstate Biotechnology, Inc., Lake Placid, N.Y.), H3 (Upstate Biotechnology), Acetyl α-tubulin (Sigma-Aldrich, St. Louis, Mo.), phospho-Akt (Serine 473) (Cell Signaling Technologies, Danvers, Mass.), Akt (Cell Signaling Technologies), Acetyl p53 (Santa Cruz Biotechnology, Santa Cruz, Calif.), p53 (Santa Cruz Biotechnology), p21 (Santa Cruz Biotechnology), or α-tubulin (Sigma-Aldrich, St. Louis, Mo.) (1:3000 dilution) in TBST/1% nonfat milk at 4 overnight. The membrane was washed three times with TBST for a total of 15 min and then incubated with a goat anti-rabbit or anti-mouse IgG antibody conjugated with horseradish (diluted 1:3000) for 1 h at room temperature. After being washed for at least three times with TBST, the signal intensity for each protein band was determined.
In general terms: Immunoblotting shows a protein as a band on a membrane.

The test system of data set [7] is HA22T (hepatoma). Nature of the data set: SRB assay, HA22T. The format is cell-based, Human. As to conditions: HA22T cells, 48 h, read-out: HA22T liver GI50. The procedure:
(§3) Human cancer A549 (non-small cell lung cancer), MDA-MB-231 (estrogen-independent breast cancer), Hep 3B (hepatoma), and HA22T (hepatoma) cells were seeded in 96-well plates in medium with 5% FBS. After 24 h, cells were fixed with 10% trichloroacetic acid (TCA) to represent cell population at the time of compound addition (T0). After additional incubation of DMSO or test compound for 48 h, cells were fixed with 10% TCA and SRB at 0.4% (w/v) in 1% acetic acid was added to stain cells. Unbound SRB was washed out by 1% acetic acid and SRB bound cells were solubilized with 10 mM Trizrna base. The absorbance was read at a wavelength of 515 nm. Using the absorbance measurements of time zero (T0), the control group (C), and the cell growth in the presence of the compound (Ti), the percentage growth was calculated at each of the compound concentrations levels.
A general note: In SRB staining, fixed cells bind dye roughly in proportion to their protein.

The subject of data set [8] is A549 (non-small cell lung cancer). Nature of the data set: SRB assay, A549. To be noted: A549 cells, 48 h. The format is cell-based, Human. As for the experimental part:
as §3

The subject of data set [9] is Hep 3B (hepatoma). The data set is described as follows: SRB assay, Hep 3B. The format is cell-based. To be noted: Homo sapiens, Hep3B, Hep-3B cells, 48 h, read-out: Hep-3B liver GI50. The procedure: as §3
Data set [10] has as its system MDA-MB-231 (estrogen-independent breast cancer). The data set is described as follows: SRB assay, MDA-MB-231. Type of data set: cell-based. To be noted: Homo sapiens, MDA-MB-231 cells, 48 h. The procedure:
as §3

Where [11] appears, read: K562 leukemia cells, MTT, 48 or 72 hr.
The mark [12] stands for this setting: U937 leukemia cells, MTT, 48 or 72 hr.
The mark [13] stands for this setting: HL60 leukemia cells, MTT, 48 or 72 hr.
The mark [14] stands for this setting: NB4 leukemia cells, MTT, 48 or 72 hr.
Setting [15] is: Kasumi-1 leukemia cells, MTT, 48 or 72 hr.

These results are taken from patent US9598364B2, “Indolyl or indolinyl hydroxamate compounds” (Taipei Medical University, priority 2010, dated 2017).

Read-outs that look alike come from different tables or passages of the source.

Usually GI50 stands for the concentration that inhibits growth by half. By TGI is commonly meant the concentration at which net growth stops. Read a high TGI as lower sensitivity of the cells.

Turning to `Nc1ccn([C@@H]2O[C@H](CO)[C@@H](O)[C@@H]2O)c(=O)n1` [Ara-C, reference compound], the 50% growth inhibitory concentration (GI50) in data set [1] (setting [11]) was above 10000 nM; in [2] (setting [12]) it was 46.6 nM; in [3] (setting [13]), 445 nM; in data set [4] (setting [14]), 448 nM; in [5] (setting [15]) it was above 10000 nM. Besides, the TGI in data set [1] (setting [11]) is recorded as above 10000 nM; in data set [2] (setting [12]) it was 109.7 nM; in data set [3] (setting [13]), 4344.3 nM; in data set [4] (setting [14]), 2324.0 nM; in data set [5] (setting [15]), above 10000 nM. In addition, the CC50 in data set [1] (read-out: LC50, K562 leukemia cells, MTT, 48 or 72 hr) is above 10000 nM; in data set [2] (read-out: LC50, U937 leukemia cells, MTT, 48 or 72 hr), 665 nM; in data set [4] (read-out: LC50, NB4 leukemia cells, MTT, 48 or 72 hr), 7320 nM; in [5] (Kasumi-1 leukemia cells, MTT, 48 or 72 hr, read-out: LC50 (the source's name)) it was above 10000 nM.

`O=C(C=Cc1ccc2c(ccn2S(=O)(=O)c2ccccc2)c1)NO` [Compound 3, 3-(1-Benzenesulfonyl-1H-indol-5-yl)-N-hydroxy-acrylamide]: the GI50 in data set [1] (Homo sapiens, K562) was 9020 nM; in data set [2] (Homo sapiens, U-937), 162 nM; in [3] (Homo sapiens, HL-60) it was 242 nM; in data set [4] (Homo sapiens, NB-4) it was 223 nM; in data set [5] (Homo sapiens, Kasumi-1 leukemia cells, MTT, 48 or 72 hr) it was 96.6 nM; in [7] (Homo sapiens), 1150 nM. Also, the GI50 in data set [8] (Homo sapiens) was 960 nM; in data set [9], 410 nM; in data set [10], 480 nM. The CC50 in data set [1] (Homo sapiens, K562, read-out: LC50) is above 10000 nM; in [2] (Homo sapiens, U-937, read-out: LC50), 718 nM; in [4] (Homo sapiens, NB-4, read-out: LC50) it was 779 nM; in [5] (Homo sapiens, Kasumi-1 leukemia cells, MTT, 48 or 72 hr, read-out: LC50 (the source's name)), 694 nM. Moreover, the TGI in [1] (setting [11]) is above 10000 nM; in data set [2] (setting [12]) it was 440.0 nM; in data set [3] (setting [13]) it was 535.8 nM; in data set [4] (setting [14]), 500.9 nM; in data set [5] (setting [15]), 393.0 nM. Also, the H3 expression entry in data set [6] is “upregulated”. In addition, in data set [6], the histone deacetylation result is listed as “inhibited”. In addition, in [6], the tubulin acetylation result was “upregulated”.

As to `COc1ccc(S(=O)(=O)n2ccc3cc(C=CC(=O)NO)ccc32)cc1` [Compound 4, N-hydroxy-3-[1-(4-methoxy-benzenesulfonyl)-1H-indol-5-yl]-acrylamide], the concentration for 50% growth inhibition (GI50) in data set [7] (Homo sapiens) was determined as 1560 nM; in [8] (Homo sapiens) it was 1310 nM; in data set [9] it was 550 nM; in [10], 750 nM.

Turning to `O=C(C=Cc1ccc2c(ccn2S(=O)(=O)c2ccc(F)cc2)c1)NO` [Compound 5, 3-[1-(4-fluoro-benzenesulfonyl)-1H-indol-5-yl]-N-hydroxy-acrylamide], the GI50 in data set [7] (Homo sapiens) is 2300 nM; in data set [8] (Homo sapiens) it was 1590 nM; in [9], 640 nM; in [10], 660 nM.

Consider `O=C(C=Cc1ccc2c(ccn2S(=O)(=O)c2ccc([N+](=O)[O-])cc2)c1)NO` [Compound 6, N-hydroxy-3-[1-(4-nitro-benzenesulfonyl)-1H-indol-5-yl]-acrylamide], for which the 50% growth inhibitory concentration (GI50) is 1980 nM in data set [7] (Homo sapiens), 2120 nM in data set [8] (Homo sapiens), 560 nM in [9] and 750 nM in data set [10].

For the compound `Nc1ccc(S(=O)(=O)n2ccc3cc(C=CC(=O)NO)ccc32)cc1` [Compound 7, 3-[1-(4-Amino-benzenesulfonyl)-1H-indol-5-yl]-N-hydroxy-acrylamide], the GI50 in [7] (Homo sapiens), in data set [8] (Homo sapiens), in [9] and in data set [10] was above 10000 nM throughout.

`COc1ccc(S(=O)(=O)n2ccc3cc(C=CC(=O)NO)ccc32)cc1OC` [Compound 8, 3-[1-(3,4-dimethoxy-benzenesulfonyl)-1H-indol-5-yl]-N-hydroxy-acrylamide]: the 50% growth inhibitory concentration (GI50) in data set [7] (Homo sapiens) is 930 nM; in data set [8] (Homo sapiens) it was 930 nM; in data set [9], 360 nM; in data set [10] it was 370 nM.

In the case of `COc1ccc(S(=O)(=O)N2CCc3cc(C=CC(=O)NO)ccc32)cc1` [Compound 13, N-hydroxy-3-[1-(4-methoxy-benzenesulfonyl)-2,3-dihydro-1H-indol-5-yl]-acrylamide], the GI50 in data set [7] (Homo sapiens) was determined as 540 nM; in data set [8] (Homo sapiens), 320 nM; in [9] it was 140 nM; in [10], 160 nM.

With `O=C(C=Cc1ccc2c(c1)CCN2S(=O)(=O)c1ccc(F)cc1)NO` [Compound 14, 3-[1-(4-fluoro-benzenesulfonyl)-2,3-dihydro-1H-indol-5-yl]-N-hydroxy-acrylamide], the GI50 was 1200 nM in [7] (Homo sapiens), 600 nM in data set [8] (Homo sapiens), 250 nM in data set [9] and 370 nM in data set [10].

As for `O=C(C=Cc1ccc2c(c1)CCN2S(=O)(=O)c1ccc([N+](=O)[O-])cc1)NO` [Compound 15, N-hydroxy-3-[1-(4-nitro-benzenesulfonyl)-2,3-dihydro-1H-indol-5-yl]-acrylamide], the concentration for 50% growth inhibition (GI50) in data set [7] (Homo sapiens) was 740 nM; in [8] (Homo sapiens), 800 nM; in [9], 280 nM; in data set [10], 450 nM.

Consider `Nc1ccc(S(=O)(=O)N2CCc3cc(C=CC(=O)NO)ccc32)cc1` [Compound 16, 3-[1-(4-amino-benzenesulfonyl)-2,3-dihydro-1H-indol-5-yl]-N-hydroxy-acrylamide], for which the GI50 in data set [7] (Homo sapiens), in [8] (Homo sapiens), in data set [9] and in data set [10] was above 10000 nM throughout.

As to `COc1ccc(S(=O)(=O)N2CCc3cc(C=CC(=O)NO)ccc32)cc1OC` [Compound 17, 3-[1-(3,4-dimethoxy-benzenesulfonyl)-2,3-dihydro-1H-indol-5-yl]-N-hydroxy-acrylamide], the concentration for 50% growth inhibition (GI50) in [7] (Homo sapiens) amounted to 620 nM; in [8] (Homo sapiens) it was 320 nM; in data set [9], 160 nM; in data set [10] it was 190 nM.

For the compound `O=C(CCCCCCC(=O)Nc1ccccc1)NO` [SAHA, reference compound], the CC50 in data set [1] is above 10000 nM; in data set [2], 5850 nM; in [4], 928 nM; in [5], 917 nM. The GI50 in [1] (setting [11]) was above 10000 nM; in data set [2] (setting [12]) it was 590 nM; in data set [3] (setting [13]) it was 455 nM; in data set [4] (setting [14]), 303 nM; in data set [7], 2240 nM; in data set [8], 2370 nM. Besides, the concentration for total growth inhibition (TGI) in data set [1] (setting [11]) was above 10000 nM; in data set [2] (setting [12]) it was 2006.9 nM; in [3] (setting [13]), 811.9 nM; in data set [4] (setting [14]), 615.8 nM; in data set [5] (setting [15]), 604.75 nM. The H3 expression entry in data set [6] was “upregulated”. Besides, the histone deacetylation result in data set [6] is “inhibited”. Further, the tubulin acetylation result in [6] is given as “upregulated”.
